Laboratory results published in paper PMC5895798, “Allosteric regulation alters carrier domain translocation in pyruvate carboxylase” (Nature Communications, 2018).
Read-outs that look alike come from different tables or passages of the source.

How the values were obtained:
Type in all cases: biochemical
AnPC [1] = target: T1, AnPC (Aspergillus nidulans, UniProt Q5B4R8); experiment: shift of L-aspartate Ki in coupled assay; details: 0.1 mM acetyl CoA; competes with L-aspartate, no activation; pH 7.8, 25 °C
T1 construct: gene ANIA_04462; full length, N-terminal (His)9 tag, pET-17b, E. coli BL21(DE3) with BirA (biotinylated), 130 kDa subunit, tetramer
T1 sequence (Q5B4R8 1-1196): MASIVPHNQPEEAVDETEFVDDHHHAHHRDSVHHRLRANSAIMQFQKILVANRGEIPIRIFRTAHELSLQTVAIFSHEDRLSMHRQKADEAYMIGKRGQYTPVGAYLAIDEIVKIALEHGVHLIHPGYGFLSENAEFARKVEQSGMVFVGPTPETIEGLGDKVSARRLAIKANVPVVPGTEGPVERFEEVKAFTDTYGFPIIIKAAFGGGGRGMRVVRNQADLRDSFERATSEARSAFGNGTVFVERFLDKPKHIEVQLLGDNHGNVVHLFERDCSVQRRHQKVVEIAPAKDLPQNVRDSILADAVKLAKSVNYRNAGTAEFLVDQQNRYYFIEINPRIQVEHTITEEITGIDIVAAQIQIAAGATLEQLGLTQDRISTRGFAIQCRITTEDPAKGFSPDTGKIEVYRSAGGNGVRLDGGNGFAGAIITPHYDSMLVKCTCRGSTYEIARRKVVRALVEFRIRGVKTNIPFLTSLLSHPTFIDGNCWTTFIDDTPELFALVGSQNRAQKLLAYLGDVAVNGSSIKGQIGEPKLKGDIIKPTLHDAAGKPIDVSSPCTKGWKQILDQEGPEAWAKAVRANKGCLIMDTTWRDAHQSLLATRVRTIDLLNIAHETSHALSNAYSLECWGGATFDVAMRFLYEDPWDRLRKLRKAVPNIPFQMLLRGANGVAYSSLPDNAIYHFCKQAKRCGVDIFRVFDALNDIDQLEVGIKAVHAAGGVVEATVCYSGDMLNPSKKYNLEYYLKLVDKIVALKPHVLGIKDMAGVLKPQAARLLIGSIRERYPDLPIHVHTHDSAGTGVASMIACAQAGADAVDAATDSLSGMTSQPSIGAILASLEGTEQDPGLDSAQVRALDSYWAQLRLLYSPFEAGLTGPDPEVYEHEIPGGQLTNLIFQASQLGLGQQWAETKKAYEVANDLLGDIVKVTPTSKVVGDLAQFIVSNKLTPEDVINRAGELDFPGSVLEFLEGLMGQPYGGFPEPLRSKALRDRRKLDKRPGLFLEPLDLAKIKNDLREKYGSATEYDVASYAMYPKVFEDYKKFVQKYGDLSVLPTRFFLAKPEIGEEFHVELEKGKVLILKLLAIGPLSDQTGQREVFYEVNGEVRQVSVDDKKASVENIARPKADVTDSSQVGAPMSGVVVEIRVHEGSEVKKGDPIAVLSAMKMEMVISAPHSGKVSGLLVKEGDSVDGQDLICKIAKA

RePC [2] = target: T2, RePC (Rhizobium etli, UniProt Q2K340); experiment: coupled malate dehydrogenase assay of pyruvate carboxylation, […] nm; details: read-out: + 0 mM acetyl coenzyme A / Ki
T2 construct: gene pyc; full length, N-terminal (His)9 tag, pET-17b, E. coli BL21(DE3) with BirA (biotinylated), 126 kDa subunit, homotetramer

AnPC [3] = target: T1, AnPC; experiment: as above; details: read-out: + 0 mM acetyl coenzyme A / Ki
RePC [4] = target: T2, RePC; experiment: as above; details: hybrid tetramer population (hybrid A) of two co-expressed domain-inactivated mutants; no acetyl CoA; 25 mM NaHCO3, 2.5 mM MgATP, 12 mM pyruvate, pH 7.8, 25 °C; allosteric; read-out: + 0 mM acetyl coenzyme A / Ki

Ki (RePC [2]) [mM] | Ki (AnPC [3]) [mM] | Ki (RePC [4]) [mM] | Structure (SMILES) | shift of L-aspartate Ki in coupled assay (AnPC [1])
– | – | – | CC(=O)SCCNC(=O)CCNC(=O)[C@H](O)C(C)(C)COP(=O)(O)OP(=O)(O)OC[C@H]1O[C@@H](n2cnc3c(N)ncnc32)[C@H](O)[C@@H]1OP(=O)(O)O [acetyl CoA] | This confirms that acetyl CoA does, indeed, bind to AnPC
4.7 ± 0.7 | 2.6 ± 0.1 | 6.2 ± 0.5 | N[C@@H](CC(=O)O)C(=O)O [L-aspartate] | –
